Consider 21 compounds from ChEMBL document CHEMBL1152274, “Discovery of potent and selective agonists for the free fatty acid receptor 1 (FFA(1)/GPR40), a potential target for the treatment of type II diabetes” (J Med Chem, 2008).

The target of experiment [1] is T1, Free fatty acid receptor 1 (Homo sapiens, UniProt O14842). Briefly: Agonist activity at human FFA1 expressed in human 1321N1 cells by calcium fluorescence assay relative to 3-(4-(benzyloxy)phenyl)propionic acid. The format is functional, cell-based.
T1 sequence (O14842 whole entry): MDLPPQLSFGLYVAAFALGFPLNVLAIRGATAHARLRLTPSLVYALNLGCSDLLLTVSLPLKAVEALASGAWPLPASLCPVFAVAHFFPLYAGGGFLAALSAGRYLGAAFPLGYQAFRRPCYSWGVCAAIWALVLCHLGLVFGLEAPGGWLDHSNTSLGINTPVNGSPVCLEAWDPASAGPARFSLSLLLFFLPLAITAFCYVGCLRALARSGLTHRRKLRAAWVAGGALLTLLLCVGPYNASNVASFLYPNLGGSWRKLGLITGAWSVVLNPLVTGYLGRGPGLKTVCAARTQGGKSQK
For experiment [2], the target named is T2, Free fatty acid receptor 2 (Homo sapiens) (UniProt O15552).
T2 sequence (whole entry): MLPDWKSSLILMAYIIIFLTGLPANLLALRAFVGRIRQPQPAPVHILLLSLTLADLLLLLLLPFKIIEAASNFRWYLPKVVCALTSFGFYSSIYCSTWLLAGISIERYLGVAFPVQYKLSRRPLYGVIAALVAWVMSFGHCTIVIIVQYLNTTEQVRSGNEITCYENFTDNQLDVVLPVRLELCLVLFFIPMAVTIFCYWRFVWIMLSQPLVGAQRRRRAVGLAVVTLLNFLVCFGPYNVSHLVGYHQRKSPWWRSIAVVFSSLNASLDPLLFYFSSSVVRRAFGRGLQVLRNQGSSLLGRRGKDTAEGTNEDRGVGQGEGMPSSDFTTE
Briefly: Agonist activity at FFA2. In kind it is functional.

In experiment [3] the target is T3, Free fatty acid receptor 3 (Homo sapiens) (UniProt O14843).
T3 sequence (whole entry): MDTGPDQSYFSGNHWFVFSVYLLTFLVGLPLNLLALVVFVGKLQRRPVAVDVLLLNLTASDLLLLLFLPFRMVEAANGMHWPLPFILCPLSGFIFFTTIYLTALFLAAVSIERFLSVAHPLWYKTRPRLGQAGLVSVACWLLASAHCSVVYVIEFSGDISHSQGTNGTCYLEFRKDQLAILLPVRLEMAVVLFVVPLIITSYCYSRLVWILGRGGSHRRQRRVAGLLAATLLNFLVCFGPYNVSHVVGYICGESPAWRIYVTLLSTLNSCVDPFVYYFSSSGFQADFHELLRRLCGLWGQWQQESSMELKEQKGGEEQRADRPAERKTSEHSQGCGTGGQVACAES
Briefly: Agonist activity at FFA3. In kind it is functional.

The target of experiment [4] is T1, Free fatty acid receptor 1. Briefly: Agonist activity at human FFA1 expressed in human 1321N1 cells by calcium fluorescence assay. In kind it is functional, cell-based. The settings on record: for pEC50: read-out: EC50; for EC50: read-out: pEC50 (converted).
In experiment [5] the test system is INS-1E. The experiment is described as follows: Enhancement of glucose-stimulated insulin secretion in rat INS-1E cells at 3 uM. In kind it is functional, cell-based.
Experiment [6] deals with INS-1E. The experiment is described as follows: Enhancement of insulin secretion in rat INS-1E cells in presence of 12 mM glucose. In kind it is functional, cell-based.
Experiment [7] relates to INS-1E. The experiment is described as follows: Enhancement of palmitate-stimulated insulin secretion in rat INS-1E cells at 10 uM. In kind it is functional, cell-based.
In experiment [8] the test system is INS-1E. Briefly: Reduction of basal insulin secretion in rat INS-1E cells in presence of 2.8 mM glucose. The format is functional, cell-based.
For experiment [9], the system named is Pancreatic islet. The experiment is described as follows: Induction of glucose-stimulated insulin secretion in pancreatic islets cells isolated from wild type mouse. The format is functional, cell-based.
In experiment [10] the test system is Pancreatic islet. The experiment is described as follows: Induction of glucose-stimulated insulin secretion in pancreatic islets cells isolated from FFA1-deficient mouse. In kind it is functional, cell-based.
The target of experiment [11] is T1, Free fatty acid receptor 1. Briefly: Agonist activity at human FFA1 expressed in human 1321N1 cells up to 31.6 uM by calcium fluorescence assay. The format is functional, cell-based.

pEC50: −log10 of the molar value. The source made the active and inactive calls. No cut-off for these calls is given here.

On to `O=C(O)CCc1ccc(C#Cc2cccc(C(F)(F)F)c2)cc1`, for which the Activity in experiment [1] stood at 98%. The result in experiment [2] and in [3] was inactive.
A word on the pEC50: it is −log10 of the EC50, conventionally taken in molar units. Consider `Cc1ccccc1C#Cc1ccc(CCC(=O)O)cc1`, for which the pEC50 in [4] is 7.49. Further, the Activity in experiment [1] worked out at 105%. Also, the result (in experiment [2]; in experiment [3]; with Pancreatic islet [9]; in the experiment on Pancreatic islet [10]) was inactive. Also, the outcome in the experiment on INS-1E [5], with INS-1E [6], in the experiment with INS-1E [7] and with INS-1E [8] was Active.
Turning to `Cc1cccc(C#Cc2ccc(OCC(=O)O)cc2)c1`, the EC50 in [4] is 513 nM. The Activity in experiment [1] was determined as 113%. The outcome in experiment [2] and in [3] was inactive.
Take `O=C(O)CCc1ccc(C#Cc2cccc(CO)c2)cc1`: in experiment [1], the Activity was 103%. The result in [2] and in experiment [3] was inactive.
On to `O=C(O)COc1ccc(C#Cc2ccccc2)cc1`, for which, in experiment [4], the EC50 is 1260 nM. Also, the Activity in [1] amounted to 104%. Also, the outcome in experiment [2] and in [3] was inactive.
For `O=C(O)COc1ccc(C#Cc2ccc(CO)cc2)cc1`, the outcome in experiment [11], in experiment [2] and in experiment [3] was inactive.
Consider `Cc1cccc(C#Cc2ccc(CCC(=O)O)cc2)c1`, for which the Activity in experiment [1] turned out to be 109%. For the same compound, the outcome in experiment [2] and in experiment [3] was inactive.
Regarding `O=Cc1cccc(C#Cc2ccc(CCC(=O)O)cc2)c1`, the Activity in experiment [1] was determined as 94%. Also, the result in [2] and in experiment [3] was inactive.
For the compound `Cc1ccc(C#Cc2ccc(OCC(=O)O)cc2)cc1`, the outcome in [11], in [2] and in experiment [3] was inactive.
For the compound `Cc1ccc(C#Cc2ccc(CCC(=O)O)cc2)cc1`, in experiment [4], the EC50 is 107 nM. Moreover, the Activity in experiment [1] was 99%. Also, the result in experiment [2] and in experiment [3] was inactive.
For the compound `O=C(O)CCc1ccc(C#Cc2cccc([N+](=O)[O-])c2)cc1`, the EC50 in experiment [4] was 58.9 nM. In [1], the Activity was determined as 94%. Also, the result in [2] and in experiment [3] was inactive.
Take `Cc1cccc(C#Cc2ccc(CCC(=O)O)cc2)c1C`: in experiment [1], the Activity stood at 108%. In addition, the result in experiment [2] and in [3] was inactive.
On to `Cc1cc(C)cc(C#Cc2ccc(CCC(=O)O)cc2)c1`, for which the Activity in [1] turned out to be 101%. In addition, the result in experiment [2] and in [3] was inactive.
For the compound `O=C(O)CCc1ccc(C#Cc2cccc3ccccc23)cc1`, the EC50 in [4] was 85.1 nM. The Activity in [1] worked out at 100%. Moreover, the result in experiment [2] and in experiment [3] was inactive.
For `O=C(O)COc1ccc(C#Cc2cccc(O)c2)cc1`, in [4], the EC50 is 5620 nM. In experiment [1], the Activity stood at 86%. For the same compound, the outcome in [2] and in experiment [3] was inactive.
Regarding `C#Cc1cccc(C#Cc2ccc(CCC(=O)O)cc2)c1`, the Activity in experiment [1] amounted to 100%. The result in [2] and in experiment [3] was inactive.
On to `Cc1ccccc1C#Cc1ccc(OCC(=O)O)cc1`, for which the EC50 in experiment [4] was 3720 nM. Moreover, in [1], the Activity came to 96%. Moreover, the outcome in experiment [2] and in [3] was inactive.
Turning to `O=C(O)COc1ccc(C#Cc2ccc(O)cc2)cc1`, the result in experiment [11], in experiment [2] and in [3] was inactive.
`Nc1cccc(C#Cc2ccc(CCC(=O)O)cc2)c1`: in experiment [1], the Activity stood at 96%. Further, the outcome in [2] and in experiment [3] was inactive.
Turning to `O=C(O)CCc1ccc(C#Cc2ccccc2)cc1`, in experiment [4], the pEC50 is 7.02. Besides, in experiment [1], the Activity came to 106%. Moreover, the outcome in experiment [2] and in experiment [3] was inactive.
For `N#Cc1cccc(C#Cc2ccc(CCC(=O)O)cc2)c1`, the Activity in experiment [1] is 92%. Further, the outcome in experiment [2] and in experiment [3] was inactive.
